Results: ChEMBL document CHEMBL1649073, “Design and optimization of benzimidazole-containing transient receptor potential melastatin 8 (TRPM8) antagonists” (J Med Chem, 2011)

How the values were obtained:
[1] = Cmax in rat at 10 mg/kg, po; format: ADME, organism-based; set-up: dose 10 mg/kg, route oral; conditions: in vivo
Rattus norvegicus = assay: Volume of distribution at steady state in rat at 10 mg/kg, po; format: ADME, organism-based; set-up: dose 10 mg/kg, route oral; conditions: in vivo
[2] = Oral bioavailability in rat at 10 mg/kg; format: ADME, organism-based; conditions: in vivo
[3] = Drug level in rat plasma at 3 mg/kg, po after 150 mins; format: ADME, organism-based; set-up: dose 3 mg/kg, route oral; conditions: read-out: Drug uptake
[4] = Drug level in rat plasma at 5.6 mg/kg, po after 150 mins; format: ADME, organism-based; set-up: dose 5.6 mg/kg, route oral; conditions: read-out: Drug uptake
[5] = Drug level in rat plasma at 10 mg/kg, po after 150 mins; format: ADME, organism-based; set-up: dose 10 mg/kg, route oral; conditions: read-out: Drug uptake
[6] = Drug level in rat brain at 3 mg/kg, po after 150 mins; format: ADME, organism-based; set-up: dose 3 mg/kg, route oral; conditions: read-out: Drug uptake
[7] = Drug level in rat brain at 5.6 mg/kg, po after 150 mins; format: ADME, organism-based; set-up: dose 5.6 mg/kg, route oral; conditions: read-out: Drug uptake
[8] = Drug level in rat brain at 10 mg/kg, po after 150 mins; format: ADME, organism-based; set-up: dose 10 mg/kg, route oral; conditions: read-out: Drug uptake
[9] = Plasma concentration in Sprague-Dawley rat at 1 to 30 mg/kg, po after 4 hrs; format: ADME, organism-based; set-up: dose 1-30 mg/kg, route oral
[10] = Volume of distribution at steady state in rat at 2 mg/kg, iv; format: ADME, organism-based; set-up: dose 2 mg/kg, route intravenous; conditions: in vivo, read-out: Vdss
[11] = Volume of distribution at steady state in dog at 2 mg/kg, iv; format: ADME, organism-based, Canis lupus familiaris; set-up: dose 2 mg/kg, route intravenous; conditions: in vivo, read-out: Vdss
[12] = AUC in rat at 10 mg/kg, po; format: ADME, organism-based; set-up: dose 10 mg/kg, route oral; conditions: plasma
[13] = Plasma concentration in guinea pig at 10 mg/kg, iv after 5 mins; format: ADME, organism-based, Cavia porcellus; set-up: dose 10 mg/kg, route intravenous
Canis familiaris [14] = assay: AUC in dog at 10 mg/kg, po; conditions: in vivo
[15] = Cmax in dog at 10 mg/kg, po; conditions: in vivo
Canis familiaris [16] = assay: Oral bioavailability in dog at 10 mg/kg; conditions: in vivo

Cmax [1] | Vdss (Rattus norvegicus) | bioavailability [2] | concentration at […] [3] | concentration at […] [4] | concentration at […] [5] | concentration at […] [6] | concentration at […] [7] | concentration at […] [8] | concentration at 4 h [9] | Vd [10] | Vd [11] | AUC [12] | concentration at 5 min [13] | AUC (Canis familiaris [14]) | Cmax [15] | F (Canis familiaris [16]) | SMILES
0.23 µg/mL | 13.6 L/kg |  |  |  |  |  |  |  |  |  |  |  |  |  |  |  | FC(F)(F)c1ccccc1-c1ccc2nc(C3=NOC4(CCCCC4)C3)[nH]c2c1
1.26 µg/mL |  | 96% | 0.295 µg/mL | 0.662 µg/mL | 1.04 µg/mL | 175 ng/g | 414 ng/g | 638 ng/g | 0.254 µg/mL | 2.92 L/kg | 4.43 L/kg | 12.3 µg·h/mL | 18.2 µg/mL | 5.252 µg·h/mL | 1.64 µg/mL | 45% | FC(F)(F)c1ccccc1-c1cc(C(F)(F)F)c2[nH]c(C3=NOC4(CCCCC4)C3)nc2c1
